Experimental data: patent US20130288895A1, “METHODS AND COMPOSITIONS FOR WEED CONTROL” (priority 2011, published 2013)

B1: CP4-12: dsRNA trigger, 82-462 of SEQ ID NO:1 (CP4 EPSPS), a 381 polynucleotide (nucleic acid, listed as Agrobacterium tumefaciens)
DNA: ATCTCCCACCGGTCCTTCATGTTCGGCGGTCTCGCGAGCGGTGAAACGCGCATCACCGGCCTTCTGGAAGGCGAGGACGTCATCAATACGGGCAAGGCCATGCAGGCCATGGGCGCCAGGATCCGTAAGGAAGGCGACACCTGGATCATCGATGGCGTCGGCAATGGCGGCCTCCTGGCGCCTGAGGCGCCGCTCGATTTCGGCAATGCCGCCACGGGCTGCCGCCTGACCATGGGCCTCGTCGGGGTCTACGATTTCGACAGCACCTTCATCGGCGACGCCTCGCTCACAAAGCGCCCGATGGGCCGCGTGTTGAACCCGCTGCGCGAAATGGGCGTGCAGGTGAAATCGGAAGACGGTGACCGTCTTCCCGTTACCTTG
modifications: dsRNA form
B2: CP4-34: dsRNA trigger, 594-1043 of SEQ ID NO:1 (CP4 EPSPS), a 450 polynucleotide (nucleic acid, listed as Agrobacterium tumefaciens)
DNA: CGATCATACGGAAAAGATGCTGCAGGGCTTTGGCGCCAACCTTACCGTCGAGACGGATGCGGACGGCGTGCGCACCATCCGCCTGGAAGGCCGCGGCAAGCTCACCGGCCAAGTCATCGACGTGCCGGGCGACCCGTCCTCGACGGCCTTCCCGCTGGTTGCGGCCCTGCTTGTTCCGGGCTCCGACGTCACCATCCTCAACGTGCTGATGAACCCCACCCGCACCGGCCTCATCCTGACGCTGCAGGAAATGGGCGCCGACATCGAAGTCATCAACCCGCGCCTTGCCGGCGGCGAAGACGTGGCGGACCTGCGCGTTCGCTCCTCCACGCTGAAGGGCGTCACGGTGCCGGAAGACCGCGCGCCTTCGATGATCGACGAATATCCGATTCTCGCTGTCGCCGCCGCCTTCGCGGAAGGGGCGACCGTGATGAACGGTCTGGAAGAACT
modifications: dsRNA form

tested on: A. palmeri (R-22); experiment: Greenhouse test: 2,4-D, glyphosate and trigger polynucleotides; assay type: in vivo; settings: 2,4-D 0.0625 lb/A; RU Wmax 1.5 lb/A where included; 14 days after treatment

Molecule	% Control (mean) [%]
CNC.O=C(O)COc1ccc(Cl)cc1Cl [2,4-D, 2,4D amine (dimethylamine salt)]	60

same assay, conditions: 2,4-D 0.125 lb/A; RU Wmax 1.5 lb/A where included; 14 days after treatment

Molecule	% Control (mean) [%]
CNC.O=C(O)COc1ccc(Cl)cc1Cl [2,4-D, 2,4D amine (dimethylamine salt)]	80.8

tested on: Corn plants transformed with the CP4 EPSPS gene; experiment: CP4 EPSPS dsRNA triggers plus RoundUp Ultra on transgenic glyphosate tolerant corn; settings: trigger 210, 630, 1890 pmol; RoundUp Ultra 1.5 a.e. lb/acre two-three days later; FIG. 2
Experimental: Corn and cotton plants that were transformed with the CP4 EPSPS gene and are resistant to glyphosate were planted in pots in a greenhouse along with negative isolines for each and grown to the first true leaf emergence stage then treated with a trigger solution containing 0.5% Silwet L77, 2% ammonium sulfate, 20 mM Na Phoshpate (pH 6.8) at different rates of trigger amount, 0 picomoles (pmol), 210 pmol, 630 pmol and 1890 pmol. For each replication (8-10 plants), two fully expanded cotyledons were treated by pipette with 50 microliters of trigger solution each, then sprayed two-three days later with 1.5 a.e.lb/acre) of RoundUp™ Ultra (glyphosate, Monsanto, St Louis, Mo.). The cotton and corn plants were scored for stunting and injury 7-16 days after spray treatment.

Molecule	glyphosate injury of corn plants
B1	dead or damaged terminal leaves
B2	dead or damaged terminal leaves

tested on: Amaranthus palmeri plants (glyphosate-resistant Palmer amaranth, “R-22”); experiment: Topical trigger oligonucleotide bioassay with glyphosate on Amaranthus palmeri; assay type: in vivo; set-up: key: relative measure of activity, the tested oligonucleotide was either active, less active, or inactive in the bioassay; relative measure of activity, the tested oligonucleotide was either active, less active, or inactive in the bioassay; relative measure of activity, the tested oligonucleotide was either active, less active, or inactive in the bioassay; settings: 5.2 triggers to A. palmeri EPSPS coding sequence; topical application with Silwet L-77, glyphosate; relative measure of activity

Molecule	Activity
AATGCCAGATGTTGCTATGAC (AATGCCAGATGTTGCTATGAC; antisense; DNA, backbone and methylation of C not given here; 5.2-DNA-wt is double-stranded DNA) [Oligo 5.2-ssDNA-S, ssDNA 21-mer, sense]	less active
ATA GCA ACA TCT GGC ATT [5.2-RNA-5′-18]	inactive
C ATA GCA ACA TCT GGC ATT [5.2-RNA-5′-19]	less active
GTCATAGCAACATCTGGCATT [5.2-DNA-wt] (GTCATAGCAACATCTGGCATT; DNA, backbone and methylation of C not given here; 5.2-DNA-wt is double-stranded DNA) [Oligo 5.2-DNA-wt, dsDNA 21-mer]	active
GTCATAGCAACATCTGGCATT [5.2-asDNA/sRNA] (GTCATAGCAACATCTGGCATT; chemistry not fully specified) [DNA/RNA hybrid 21-mer]	inactive
GTCATAGCAACATCTGGCATT [5.2-sDNA/asRNA] (GTCATAGCAACATCTGGCATT; RNA, backbone and T or U not given here; hybrid: sense DNA strand with antisense RNA strand) [DNA/RNA hybrid 21-mer]	inactive
GTCATAGCAACATCTGGCATT [5.2-ssDNA-AS] (GTCATAGCAACATCTGGCATT; antisense; DNA, backbone and methylation of C not given here; 5.2-DNA-wt is double-stranded DNA) [Oligo 5.2-ssDNA-AS, ssDNA 21-mer, antisense]	less active
GTCATAGCAACATCTGGCATT [Oligo 5.2-RNA-wt]	active
GTCATAGCAACATCTGGCATT-3′IdT [5.2-RNA-3′IdT]	inactive
GTCATAGCAACATCTGGCATT-3′ddC [5.2-RNA-3′ddC]	inactive
GTC Aat GCA ACA TCT GGC ATT [Oligo 5.2-RNA-M5]	active
TC ATA GCA ACA TCT GGC ATT [5.2-RNA-5′-20]	active

same assay, conditions: AS83 made as ssDNA, dsRNA, dsDNA; making Palmer R-22 plant sensitive to glyphosate

Molecule	Activity
CTCTTTGTTTTTCTTCTGCCAATTT (CTCTTTGTTTTTCTTCTGCCAATTT; chemistry not fully specified) [AS83-DNA-blunt, dsDNA 25-mer]	active
CUCUUUGUUUUUCUUCUGCCAAUUU (CUCUUUGUUUUUCUUCUGCCAAUUU; RNA, backbone not given here; further chemistry not fully specified; listed as Amaranthus palmeri) [AS83-RNA-wt-]	active

same assay, conditions: AS83 triggers to EPSPS promoter of glyphosate resistant A. palmeri; 3′/5′ deletions, mismatch mutations; relative measure of activity

Molecule	Activity
CTC TTT GTT TTT CTT CT (CTCTTTGTTTTTCTTCT; DNA, backbone and methylation of C not given here) [AS83-DNA-17-3′D, ssDNA 17-mer]	inactive
CTC TTT GTT TTT CTT CTG (CTCTTTGTTTTTCTTCTG; DNA, backbone and methylation of C not given here) [AS83-DNA-18-3′D, ssDNA 18-mer]	inactive
CTC TTT GTT TTT CTT CTG C (CTCTTTGTTTTTCTTCTGC; DNA, backbone and methylation of C not given here) [AS83-DNA-19-3′D, ssDNA 19-mer]	inactive
CTCTTTGTTTTTCTTCTGCC (CTCTTTGTTTTTCTTCTGCC; DNA, backbone and methylation of C not given here) [AS83-DNA-20-3′D, ssDNA 20-mer]	active
CTCTTTGTTTTTCTTCTGCCA (CTCTTTGTTTTTCTTCTGCCA; chemistry not given here) [AS83-DNA-21-3′D, ssDNA 21-mer]	active
CTCTTTGTTTTTCTTCTGCCAA (CTCTTTGTTTTTCTTCTGCCAA; chemistry not given here) [AS83-DNA-22-3′D, ssDNA 22-mer]	active
CTCTTTGTTTTTCTTCTGCCAAT (CTCTTTGTTTTTCTTCTGCCAAT; chemistry not given here) [AS83-DNA-23-3′D, ssDNA 23-mer]	active
CTCTTTGTTTTTCTTCTGCCAATT (CTCTTTGTTTTTCTTCTGCCAATT; chemistry not given here) [AS83-DNA-24-3′D, ssDNA 24-mer]	active
CTCTTTGTTTTTCTTCTGCCAATTT (antisense CTCTTTGTTTTTCTTCTGCCAATTT; DNA, backbone and methylation of C not given here; listed as Amaranthus palmeri) [AS83-DNA-25-wt]	active
CTCTTTGTTTTTCTTCTGCCAATTT-3′InvdT [AS83-DNA-3′InvdT]	inactive
CTCTTTGTTTTTCTTCTGCCAATTT-3′ddC [AS83-DNA-3′ddC]	inactive
CTTTGTTTTTCTTCTGCCAATTT (CTTTGTTTTTCTTCTGCCAATTT; chemistry not given here) [AS83-DNA-23-5′D, ssDNA 23-mer]	active
TCTTTGTTTTTCTTCTGCCAATTT (TCTTTGTTTTTCTTCTGCCAATTT; chemistry not given here) [AS83-DNA-24-5′D, ssDNA 24-mer]	active
TTG TTT TTC TTC TGC CA (TTGTTTTTCTTCTGCCA; DNA, backbone and methylation of C not given here) [AS83-DNA-17-5′D, ssDNA 17-mer]	inactive
TTG TTT TTC TTC TGC CAA (TTGTTTTTCTTCTGCCAA; DNA, backbone and methylation of C not given here) [AS83-DNA-18-5′D, ssDNA 18-mer]	inactive
TTG TTT TTC TTC TGC CAA T (TTGTTTTTCTTCTGCCAAT; DNA, backbone and methylation of C not given here) [AS83-DNA-19-5′D, ssDNA 19-mer]	less active
TTGTTTTTCTTCTGCCAATT (TTGTTTTTCTTCTGCCAATT; chemistry not given here) [AS83-DNA-20-5′D, ssDNA 20-mer]	active
TTGTTTTTCTTCTGCCAATTT (TTGTTTTTCTTCTGCCAATTT; chemistry not given here) [AS83-DNA-21-5′D, ssDNA 21-mer]	active
TTTGTTTTTCTTCTGCCAATTT (TTTGTTTTTCTTCTGCCAATTT; chemistry not given here) [AS83-DNA-22-5′D, ssDNA 22-mer]	active
